Reference: patent US20080227655A1, “Assessment of effect of an agent on a human biological condition using rodent gene expression panels” (priority 2006, published 2008)
Where “and” joins values, the source holds several entries; their conditions need not be identical. Identical values can stand only once.

Test system: custom murine 40-gene Precision Profile for Rheumatoid Arthritis, whole blood
Experiment: Collagen Induced Arthritis (CIA) model, whole blood gene expression by QPCR, vehicle or dexamethasone treatment
Assay type: in vivo, male DBA/1 mice
Details: for Normalized CT (Delta CT) IL1RAP_M / Normalized CT (Delta CT) IL1RN—M / Normalized CT (Delta CT) IL6_M / Normalized CT (Delta CT) JUN_M / Normalized CT (Delta CT) MEF2C—M / Normalized CT (Delta CT) NFKB1—M / Normalized CT (Delta CT) PADI4—M / Normalized CT (Delta CT) PLA2G7—M / Normalized CT (Delta CT) PTPRC_M / Normalized CT (Delta CT) PTX3_M / Normalized CT (Delta CT) SER-PINE1_M / Normalized CT (Delta CT) TGFB1_M / Normalized CT (Delta CT) TIMP1_M / Normalized CT (Delta CT) TLR2_M / Normalized CT (Delta CT) TLR4_M / Normalized CT (Delta CT) TNFSF5—M / Normalized CT (Delta CT) TNF_M / Normalized CT (Delta CT) VEGF_M: whole blood
Protocol: Whole blood gene expression changes were evaluated in vehicle control and drug-treated murine subjects across two murine models of arthritis according to the following arthritis models:
KRN Transgenic Mouse (K/B×N): K/B×N serum from transgenic mouse used to induce arthritis in female BALB/c mice (n=54). Collagen Induced Arthritis (CIA): Bovine type II collagen used to induce arthritis in male DBA/1 mice (n=54).
In addition, naïve, untreated animal groups at baseline and terminal day were included to control for potential age-related changes in gene expression over the extended study periods. Animal groups, time-points, and treatment schedules are summarized in Tables 20A and 20B, respectively.
Whole blood samples from animals were collected by retro-orbital bleed at selected time-points in accordance with the arthritis study schemas described in […], and transferred into sample collection tubes containing a 1.5× lysis solution and RPMI. Samples were processed into total RNA and cDNA. […] It was anticipated from these murine models would provide a better understanding of the relevant molecular response of arthritis induction and their potential correlation to the human disease condition.
Normal murine subject reference values (represented as normalized Ct or ΔCt values) were established for male DBA/1 mice (n=6 for the CIA study arm) and female BALB/c mice (n=6 for the KRN study arm). In both arms of the study, gene expression response of normal (naïve, non-immunized and untreated) murine subjects were evaluated in groups of 6 each at day 0 and day 60 for the CIA study arm, and at day 0 and day 21 for the KRN study arm (see Tables 20A and 20B).
Gene expression responses for this arthritis-induced murine model were evaluated for untreated mice at day 24 and vehicle-treated mice at days 33, 42, and 60 to characterize disease progression.

[1] = CIA Day 33 Treated, group Average
[2] = CIA Day 33 Treated, individual mice
[3] = CIA Day 42 Treated, group Average

C[C@@H]1C[C@H]2[C@@H]3CCC4=CC(=O)C=C[C@]4(C)[C@@]3(F)[C@@H](O)C[C@]2(C)[C@@]1(O)C(=O)CO [Dexamethasone]
ABCA1_M Normalized CT Value (Delta CT), Average [1]: 17.98
APAF1_M Normalized CT Value (Delta CT), Average [1]: 19.03
ARG2_M Normalized CT Value (Delta CT), Average [1]: 17.82
CASP1_M Normalized CT Value (Delta CT), Average [1]: 18.22
CASP3_M Normalized CT Value (Delta CT), Average [1]: 17.75
CCR3_M Normalized CT Value (Delta CT), Average [1]: 19.87
CD8A_M Normalized CT Value (Delta CT), Average [1]: 18.74
CD14_M Normalized CT Value (Delta CT), Average [1]: 17.29
CD32_M Normalized CT Value (Delta CT), Average [1]: 18.45
CD86_M Normalized CT Value (Delta CT), Average [1]: 22.19
CSPG2_M Normalized CT Value (Delta CT), Average [1]: 18.04
F3_M Normalized CT Value (Delta CT), Average [1]: 25.08
HMOX1—M Normalized CT Value (Delta CT), Average [1]: 17.47
HSPA1A—M Normalized CT Value (Delta CT), Average [1]: 19.62
ICAM1—M Normalized CT Value (Delta CT), Average [1]: 18.84
IFI16_M Normalized CT Value (Delta CT), Average [1]: 18.42
IL1A_M Normalized CT Value (Delta CT), Average [1]: 24.44
IL1B_M Normalized CT Value (Delta CT), Average [1]: 14.09
IL10_M Normalized CT Value (Delta CT), Average [1]: 25.81
Normalized CT (Delta CT) IL1RAP_M [1]: 17.96
Normalized CT (Delta CT) IL1RN—M [1]: 17.38
Normalized CT (Delta CT) IL6_M [1]: 23.95
Normalized CT (Delta CT) JUN_M [1]: 19.37
Normalized CT (Delta CT) MEF2C—M [1]: 18.84
Normalized CT (Delta CT) NFKB1—M [1]: 16.55
Normalized CT (Delta CT) PADI4—M [1]: 17.87
Normalized CT (Delta CT) PLA2G7—M [1]: 14.85
Normalized CT (Delta CT) PTPRC_M [1]: 13.58
Normalized CT (Delta CT) PTX3_M [1]: 25.65
Normalized CT (Delta CT) SER-PINE1_M [1]: 20.38
Normalized CT (Delta CT) TGFB1_M [1]: 14.82
Normalized CT (Delta CT) TIMP1_M [1]: 25.24
Normalized CT (Delta CT) TLR2_M [1]: 17.70
Normalized CT (Delta CT) TLR4_M [1]: 18.20
Normalized CT (Delta CT) TNFSF5—M [1]: 21.06
Normalized CT (Delta CT) TNF_M [1]: 19.71
Normalized CT (Delta CT) VEGF_M [1]: 20.19
ABCA1_M Normalized CT Value (Delta CT) [2]: 17.26 and 18.20 and 17.50 and 17.61 and 19.02 and 18.30
APAF1_M Normalized CT Value (Delta CT) [2]: 18.67 and 19.22 and 18.56 and 19.02 and 19.62 and 19.07
ARG2_M Normalized CT Value (Delta CT) [2]: 17.14 and 18.42 and 17.47 and 17.92 and 17.83 and 18.15
CASP1_M Normalized CT Value (Delta CT) [2]: 17.29 and 18.41 and 17.98 and 18.58 and 18.74 and 18.31
CASP3_M Normalized CT Value (Delta CT) [2]: 16.82 and 17.64 and 17.74 and 18.06 and 18.00 and 18.21
CCR3_M Normalized CT Value (Delta CT) [2]: 18.36 and 19.59 and 19.88 and 20.33 and 20.88 and 20.15
CD8A_M Normalized CT Value (Delta CT) [2]: 17.83 and 18.69 and 18.52 and 18.83 and 19.44 and 19.14
CD14_M Normalized CT Value (Delta CT) [2]: 17.10 and 17.77 and 16.89 and 17.05 and 17.36 and 17.54
CD32_M Normalized CT Value (Delta CT) [2]: 17.52 and 18.69 and 18.07 and 18.17 and 19.57 and 18.71
CD86_M Normalized CT Value (Delta CT) [2]: 21.71 and 22.43 and 21.83 and 21.99 and 22.92 and 22.26
CSPG2_M Normalized CT Value (Delta CT) [2]: 17.33 and 18.26 and 17.36 and 18.91 and 17.94 and 18.42
F3_M Normalized CT Value (Delta CT) [2]: 23.01 and 25.60 and 26.10 and 25.22 and 24.87 and 25.67
HMOX1—M Normalized CT Value (Delta CT) [2]: 16.95 and 17.50 and 17.08 and 17.53 and 17.80 and 17.98
HSPA1A—M Normalized CT Value (Delta CT) [2]: 18.80 and 20.04 and 19.25 and 20.03 and 19.32 and 20.30
ICAM1—M Normalized CT Value (Delta CT) [2]: 18.16 and 19.11 (2×) and 18.33 and 19.33 and 19.01
IFI16_M Normalized CT Value (Delta CT) [2]: 17.31 and 18.37 and 18.29 and 18.56 and 18.70 and 19.31
IL1A_M Normalized CT Value (Delta CT) [2]: 24.58 and 24.31
IL1B_M Normalized CT Value (Delta CT) [2]: 13.46 and 14.53 and 13.95 and 14.00 and 14.32 and 14.27
IL10_M Normalized CT Value (Delta CT) [2]: 25.17 and 25.58 and 26.12 and 26.14 and 25.77 and 26.06
Normalized CT (Delta CT) IL1RAP_M [2]: 17.64 (2×) and 18.18 and 17.83 and 18.26 and 18.20
Normalized CT (Delta CT) IL1RN—M [2]: 16.72 and 17.84 and 17.10 and 17.67 and 17.23 and 17.73
Normalized CT (Delta CT) IL6_M [2]: 23.19 and 24.14 and 23.12 and 24.21 and 24.22 and 24.83
Normalized CT (Delta CT) JUN_M [2]: 18.61 and 19.69 and 19.28 and 19.18 and 19.87 and 19.60
Normalized CT (Delta CT) MEF2C—M [2]: 18.46 and 19.03 and 18.51 and 18.82 and 19.65 and 18.56
Normalized CT (Delta CT) NFKB1—M [2]: 15.81 and 16.66 and 16.35 and 16.51 and 17.38 and 16.63
Normalized CT (Delta CT) PADI4—M [2]: 17.79 and 18.22 and 17.82 and 17.94 and 17.90 and 17.58
Normalized CT (Delta CT) PLA2G7—M [2]: 14.49 and 15.12 and 14.67 and 15.01 and 15.09 and 14.74
Normalized CT (Delta CT) PTPRC_M [2]: 13.01 and 13.82 and 13.27 and 13.81 and 14.11 and 13.46
Normalized CT (Delta CT) PTX3_M [2]: 25.66 and 25.46 and 25.62 and 25.86 and 26.01 and 25.32
Normalized CT (Delta CT) SER-PINE1_M [2]: 20.09 and 20.42 and 20.70 and 20.01 and 20.26 and 20.78
Normalized CT (Delta CT) TGFB1_M [2]: 14.47 and 14.92 and 14.68 and 14.99 and 14.96 and 14.87
Normalized CT (Delta CT) TIMP1_M [2]: 25.48 and 25.27 and 25.34 and 25.05 and 25.73 and 24.56
Normalized CT (Delta CT) TLR2_M [2]: 17.23 and 17.92 and 17.46 and 17.97 and 17.84 and 17.81
Normalized CT (Delta CT) TLR4_M [2]: 17.72 and 18.52 and 18.24 and 18.23 and 18.30 and 18.16
Normalized CT (Delta CT) TNFSF5—M [2]: 20.24 and 21.35 and 20.73 and 21.36 and 21.76 and 20.95
Normalized CT (Delta CT) TNF_M [2]: 18.97 and 20.16 and 19.24 and 19.56 and 20.34 and 20.01
Normalized CT (Delta CT) VEGF_M [2]: 19.55 and 20.59 and 19.74 and 20.04 and 21.29 and 19.96
ABCA1_M Normalized CT Value (Delta CT), Average [3]: 19.35
APAF1_M Normalized CT Value (Delta CT), Average [3]: 19.60
ARG2_M Normalized CT Value (Delta CT), Average [3]: 17.90
CASP1_M Normalized CT Value (Delta CT), Average [3]: 18.55
CASP3_M Normalized CT Value (Delta CT), Average [3]: 18.07
CCR3_M Normalized CT Value (Delta CT), Average [3]: 19.53
CD8A_M Normalized CT Value (Delta CT), Average [3]: 19.66
CD14_M Normalized CT Value (Delta CT), Average [3]: 17.57
